Measurements reported in ChEMBL document CHEMBL1152303, “Synthesis and biological evaluation of a series of liver-selective phosphonic acid thyroid hormone receptor agonists and their prodrugs” (J Med Chem, 2008).

Tests used:
Rattus norvegicus [1] = assay: Reduction in total plasma cholesterol level in cholesterol-fed Sprague-Dawley rat at 0.5 mg/kg, po after 24 hrs; type: functional; design: scale not given: the % may be the effect or the level left
Rattus norvegicus [2] = assay: Reduction in total plasma cholesterol level in cholesterol-fed orally dosed Sprague-Dawley rat after 24 hrs; type: functional; conditions: po
[3] = Metabolic stability in human liver S9 fraction assessed as activation rate at 100 uM after 1 hr; type: ADME, subcellular; conditions: s9, 1 h
[4] = Metabolic stability in human S9 liver fraction assessed as monoacid levels at 100 uM after 1 hr; type: ADME, subcellular; conditions: s9, 1 h
[5] = Metabolic stability in human S9 liver fraction assessed as prodrug remaining at 100 uM after 1 hr; type: ADME, subcellular; conditions: s9, 1 h
Rattus norvegicus [6] = assay: Reduction in total plasma cholesterol level in cholesterol-fed orally dosed Sprague-Dawley rat after 24 hrs relative to control; type: functional; design: scale not given: the % may be the effect or the level left
[7] = AUClast in Sprague-Dawley rat at 3 mg/kg, iv; type: ADME, organism-based; design: time 0 - last, dose 3 mg/kg, route intravenous; conditions: plasma
[8] = AUClast in Sprague-Dawley rat at 3 mg/kg, po; type: ADME, organism-based; design: time 0 - last, dose 3 mg/kg, route oral; conditions: plasma
Rattus norvegicus [9] = assay: Cmax in Sprague-Dawley rat at 3 mg/kg, iv; type: ADME, organism-based; design: dose 3 mg/kg, route intravenous; conditions: in vivo
Rattus norvegicus [10] = assay: Cmax in Sprague-Dawley rat at 3 mg/kg, po; type: ADME, organism-based; design: dose 3 mg/kg, route oral; conditions: in vivo
[11] = Tmax in Sprague-Dawley rat at 3 mg/kg, iv; type: ADME, organism-based; design: dose 3 mg/kg, route intravenous; conditions: in vivo
Rattus norvegicus [12] = assay: Tmax in Sprague-Dawley rat at 3 mg/kg, po; type: ADME, organism-based; design: dose 3 mg/kg, route oral; conditions: in vivo
Rattus norvegicus [13] = assay: Half life in Sprague-Dawley rat at 3 mg/kg, iv; type: ADME, organism-based; design: dose 3 mg/kg, route intravenous; conditions: in vivo
Rattus norvegicus [14] = assay: Half life in Sprague-Dawley rat at 3 mg/kg, po; type: ADME, organism-based; design: dose 3 mg/kg, route oral; conditions: in vivo
[15] = Mean residence time in Sprague-Dawley rat at 3 mg/kg, iv; type: ADME, organism-based; design: dose 3 mg/kg, route intravenous; conditions: in vivo
[16] = Mean residence time in Sprague-Dawley rat at 3 mg/kg, po; type: ADME, organism-based; design: dose 3 mg/kg, route oral; conditions: in vivo
Rattus norvegicus [17] = assay: Mean absorption time in Sprague-Dawley rat at 3 mg/kg, po; type: ADME, organism-based; design: dose 3 mg/kg, route oral; conditions: in vivo
[18] = Oral bioavailability in Sprague-Dawley rat at 3 mg/kg; type: ADME, organism-based; conditions: in vivo
Rattus norvegicus [19] = assay: AUClast in Sprague-Dawley rat assessed as 3,5-Dimethyl-4-(4'-hydroxy-3'-isopropylbenzyl)phenoxy]methylphosphonic acid level at 3 mg/kg, iv; type: ADME, organism-based, Plasma; design: time 0 - last, dose 3 mg/kg, route intravenous; conditions: in vivo
Rattus norvegicus [20] = assay: AUClast in Sprague-Dawley rat assessed as 3,5-Dimethyl-4-(4'-hydroxy-3'-isopropylbenzyl)phenoxy]methylphosphonic acid level at 3 mg/kg, po; type: ADME, organism-based, Plasma; design: time 0 - last, dose 3 mg/kg, route oral; conditions: in vivo
Rattus norvegicus [21] = assay: Cmax in Sprague-Dawley rat assessed as 3,5-Dimethyl-4-(4'-hydroxy-3'-isopropylbenzyl)phenoxy]methylphosphonic acid level at 3 mg/kg, iv; type: ADME, organism-based; design: dose 3 mg/kg, route intravenous; conditions: in vivo
Rattus norvegicus [22] = assay: Cmax in Sprague-Dawley rat assessed as 3,5-Dimethyl-4-(4'-hydroxy-3'-isopropylbenzyl)phenoxy]methylphosphonic acid level at 3 mg/kg, po; type: ADME, organism-based; design: dose 3 mg/kg, route oral; conditions: in vivo
Rattus norvegicus [23] = assay: Tmax in Sprague-Dawley rat assessed as 3,5-Dimethyl-4-(4'-hydroxy-3'-isopropylbenzyl)phenoxy]methylphosphonic acid level at 3 mg/kg, iv; type: ADME, organism-based; design: dose 3 mg/kg, route intravenous; conditions: in vivo
Rattus norvegicus [24] = assay: Tmax in Sprague-Dawley rat assessed as 3,5-Dimethyl-4-(4'-hydroxy-3'-isopropylbenzyl)phenoxy]methylphosphonic acid level at 3 mg/kg, po; type: ADME, organism-based; design: dose 3 mg/kg, route oral; conditions: in vivo
Rattus norvegicus [25] = assay: Half life in Sprague-Dawley rat assessed as 3,5-Dimethyl-4-(4'-hydroxy-3'-isopropylbenzyl)phenoxy]methylphosphonic acid level at 3 mg/kg, iv; type: ADME, organism-based; design: dose 3 mg/kg, route intravenous; conditions: in vivo
Rattus norvegicus [26] = assay: Half life in Sprague-Dawley rat assessed as 3,5-Dimethyl-4-(4'-hydroxy-3'-isopropylbenzyl)phenoxy]methylphosphonic acid level at 3 mg/kg, po; type: ADME, organism-based; design: dose 3 mg/kg, route oral; conditions: in vivo
Rattus norvegicus [27] = assay: Mean residence time in Sprague-Dawley rat assessed as 3,5-Dimethyl-4-(4'-hydroxy-3'-isopropylbenzyl)phenoxy]methylphosphonic acid level at 3 mg/kg, iv; type: ADME, organism-based; design: dose 3 mg/kg, route intravenous; conditions: in vivo
Rattus norvegicus [28] = assay: Mean residence time in Sprague-Dawley rat assessed as 3,5-Dimethyl-4-(4'-hydroxy-3'-isopropylbenzyl)phenoxy]methylphosphonic acid level at 3 mg/kg, po; type: ADME, organism-based; design: dose 3 mg/kg, route oral; conditions: in vivo
Rattus norvegicus [29] = assay: Mean absorption time in Sprague-Dawley rat assessed as 3,5-Dimethyl-4-(4'-hydroxy-3'-isopropylbenzyl)phenoxy]methylphosphonic acid level at 3 mg/kg, po; type: ADME, organism-based; design: dose 3 mg/kg, route oral; conditions: in vivo
Rattus norvegicus [30] = assay: Oral bioavailability in Sprague-Dawley rat assessed as 3,5-Dimethyl-4-(4'-hydroxy-3'-isopropylbenzyl)phenoxy]methylphosphonic acid level at 3 mg/kg; type: ADME, organism-based; conditions: in vivo
Rattus norvegicus [31] = assay: Reduction in total plasma cholesterol level in cholesterol-fed Sprague-Dawley rat at 0.2 mg/kg, ip after 24 hrs; type: functional; design: scale not given: the % may be the effect or the level left; conditions: route intraperitoneal
[32] = target: T1, Thyroid hormone receptor alpha (Homo sapiens, UniProt P10827)
T1 sequence (P10827 whole entry): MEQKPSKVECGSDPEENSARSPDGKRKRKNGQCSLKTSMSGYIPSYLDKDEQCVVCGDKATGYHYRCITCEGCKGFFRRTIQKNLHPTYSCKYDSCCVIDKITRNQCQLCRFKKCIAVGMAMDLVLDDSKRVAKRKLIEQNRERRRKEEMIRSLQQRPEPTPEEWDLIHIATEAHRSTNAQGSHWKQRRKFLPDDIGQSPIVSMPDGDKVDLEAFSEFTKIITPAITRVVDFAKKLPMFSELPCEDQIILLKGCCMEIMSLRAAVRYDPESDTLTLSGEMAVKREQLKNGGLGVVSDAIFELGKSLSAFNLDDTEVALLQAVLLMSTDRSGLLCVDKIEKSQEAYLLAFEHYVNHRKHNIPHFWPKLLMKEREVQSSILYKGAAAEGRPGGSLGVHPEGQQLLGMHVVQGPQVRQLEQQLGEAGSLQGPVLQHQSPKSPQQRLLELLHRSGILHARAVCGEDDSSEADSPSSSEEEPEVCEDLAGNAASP
Description: Displacement of [125I]3,5,3'-triiodo-L-thyronine from His-tagged human recombinant TRalpha1 by scintillation proximity assay

[33] = target: T2, Thyroid hormone receptor beta (Homo sapiens, UniProt P10828)
T2 sequence (P10828 whole entry): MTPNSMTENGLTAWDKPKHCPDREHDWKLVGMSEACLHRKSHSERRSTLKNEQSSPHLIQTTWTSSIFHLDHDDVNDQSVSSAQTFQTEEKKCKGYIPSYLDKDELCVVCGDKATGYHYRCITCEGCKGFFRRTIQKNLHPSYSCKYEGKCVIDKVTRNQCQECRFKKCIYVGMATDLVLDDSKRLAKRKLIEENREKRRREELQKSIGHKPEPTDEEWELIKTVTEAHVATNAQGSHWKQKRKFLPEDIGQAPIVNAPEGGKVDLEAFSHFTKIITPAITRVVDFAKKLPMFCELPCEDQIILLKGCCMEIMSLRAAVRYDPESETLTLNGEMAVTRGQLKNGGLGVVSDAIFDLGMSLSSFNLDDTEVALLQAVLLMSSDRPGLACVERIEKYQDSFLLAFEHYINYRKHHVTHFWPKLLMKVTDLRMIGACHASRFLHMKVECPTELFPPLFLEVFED
Description: Displacement of [125I]3,5,3'-triiodo-L-thyronine His-tagged human recombinant TRbeta1 by scintillation proximity assay

Rattus norvegicus [34] = assay: Agonist activity at thyroid hormone receptor in Sprague-Dawley rat assessed as liver mGPDH activity at 1 mg/kg administered through osmotic pump infusion per ug protein; type: functional
Rattus norvegicus [35] = assay: Agonist activity at thyroid hormone receptor in Sprague-Dawley rat assessed as heart mGPDH activity at 1 mg/kg administered through osmotic pump infusion per ug protein; type: functional

CCOC(=O)[C@H](C)NP(=O)(COc1cc(C)c(Cc2ccc(O)c(C(C)C)c2)c(C)c1)N[C@@H](C)C(=O)OCC
Activity (Rattus norvegicus [1]): 42%

CCOC(=O)CNP(=O)(COc1cc(C)c(Cc2ccc(O)c(C(C)C)c2)c(C)c1)NCC(=O)OCC
Activity (Rattus norvegicus [1]): 42% | ED50 (Rattus norvegicus [2]): 0.1 mg/kg | Stability [3]: 73 pmol/min/mg | Stability [4]: 6% | Stability [5]: 70% | Activity (Rattus norvegicus [6]): 48%

Cc1cc(OC[P@@]2(=O)OCC[C@@H](c3cccc(Br)c3)O2)cc(C)c1Cc1ccc(O)c(C(C)C)c1 (relative stereo)
Activity (Rattus norvegicus [1]): 0%

Cc1cc(OCP2(=O)OCC[C@@H](c3cccc(Cl)c3)O2)cc(C)c1Cc1ccc(O)c(C(C)C)c1 (some centres not stated) [MB07811]
Activity (Rattus norvegicus [1]): 36% | ED50 (Rattus norvegicus [2]): 0.48 mg/kg | AUC(0-t) [7]: 260 ng·h/mL | AUC(0-t) [8]: 26 ng·h/mL | Cmax (Rattus norvegicus [9]): 600 ng/mL | Cmax (Rattus norvegicus [10]): 12 ng/mL | Tmax [11]: 0 h | Tmax (Rattus norvegicus [12]): 2.1 h | t1/2 (Rattus norvegicus [13]): 1.23 h | t1/2 (Rattus norvegicus [14]): 0.95 h | MRT [15]: 1.2 h | MRT [16]: 2.49 h | MAT (Rattus norvegicus [17]): 1.29 h | bioavailability [18]: 9.9% | Activity (Rattus norvegicus [6]): 55% | AUClast (Rattus norvegicus [19]): 340 ng·h/mL | AUClast (Rattus norvegicus [20]): 135 ng·h/mL | Cmax (Rattus norvegicus [21]): 92 ng/mL | Cmax (Rattus norvegicus [22]): 18 ng/mL | Tmax (Rattus norvegicus [23]): 0.6 h | Tmax (Rattus norvegicus [24]): 3.6 h | t1/2 (Rattus norvegicus [25]): 8.82 h | t1/2 (Rattus norvegicus [26]): 9.25 h | MRT (Rattus norvegicus [27]): 4.49 h | MRT (Rattus norvegicus [28]): 7.91 h | MAT (Rattus norvegicus [29]): 3.4 h | F (Rattus norvegicus [30]): 39.2%

CC(C)c1cc(Oc2c(Br)cc(OCP(=O)(O)O)cc2Br)ccc1O
Activity (Rattus norvegicus [31]): 42.6%

CC(C)c1cc(Oc2c(Br)cc(NCP(=O)(O)O)cc2Br)ccc1O
Activity (Rattus norvegicus [31]): 47.7%

CCOC(=O)C(C)(C)NP(=O)(COc1cc(C)c(Cc2ccc(O)c(C(C)C)c2)c(C)c1)NC(C)(C)C(=O)OCC
Activity (Rattus norvegicus [1]): 23%

CCOC(=O)[C@H](Cc1ccccc1)NP(=O)(COc1cc(C)c(Cc2ccc(O)c(C(C)C)c2)c(C)c1)N[C@@H](Cc1ccccc1)C(=O)OCC
Activity (Rattus norvegicus [1]): 0%

Cc1cc(OC[P@@]2(=O)OCC[C@@H](c3cccc(F)c3)O2)cc(C)c1Cc1ccc(O)c(C(C)C)c1 (relative stereo)
Activity (Rattus norvegicus [1]): 46%

Cc1cc(OCP(=O)(OCOC(=O)OC(C)C)OCOC(=O)OC(C)C)cc(C)c1Cc1ccc(O)c(C(C)C)c1
Activity (Rattus norvegicus [1]): 24%

CCOC(=O)[C@@H](NP(=O)(COc1cc(C)c(Cc2ccc(O)c(C(C)C)c2)c(C)c1)N[C@H](C(=O)OCC)C(C)C)C(C)C
Activity (Rattus norvegicus [1]): 13%

Cc1cc(OC[P@@]2(=O)OCC[C@@H](c3cc(Cl)cc(Cl)c3)O2)cc(C)c1Cc1ccc(O)c(C(C)C)c1 (relative stereo)
Activity (Rattus norvegicus [1]): 29%

CC(C)c1cc(Oc2c(Br)cc(CP(=O)(O)O)cc2Br)ccc1O
Ki [32]: 235 nM | Ki [33]: 15.5 nM

O=C(O)Cc1cc(I)c(Oc2ccc(O)c(I)c2)c(I)c1 [TIRATRICOL]
Activity (Rattus norvegicus [34]): 7.1 U/min | Activity (Rattus norvegicus [35]): 3.68 U/min

CC(C)c1cc(Oc2c(Cl)cc(NCP(=O)(O)O)cc2Cl)ccc1O
Ki [33]: 30.5 nM

Cc1cc(NCP(=O)(O)O)cc(C)c1Cc1ccc(O)c(C(C)C)c1
Activity (Rattus norvegicus [31]): 32.3% | Ki [32]: 28.4 nM | Ki [33]: 9.1 nM

Cc1cc(OC[P@@]2(=O)OCC[C@@H](c3ccc(Cl)cc3)O2)cc(C)c1Cc1ccc(O)c(C(C)C)c1
Activity (Rattus norvegicus [1]): 28%
